From ChEMBL document CHEMBL1201862, “PubChem BioAssay data set” (2004)
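Dose response: 5 concentrations. Exposure: 48 h. Format: 96-well plates. Endpoint: linear interpolation; highest concentration if not reached. GI50 is the concentration that inhibits growth by half.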 Activity calls are given as the source filed them. No stated cut-off is given here; in the data, active = GI50 up to about 1.1 µM and inactive = higher.

Columns and labels:
Assay in all cases: NCI tumour cell line growth inhibition, 48 h
UACC-62 = system: UACC-62
MCF7 = system: MCF7
PC-3 = system: PC-3
A498 = system: A498
NCI-H23 = system: NCI-H23
SK-MEL-5 = system: SK-MEL-5
LOX IMVI = system: LOX IMVI
IGROV-1 = system: IGROV-1
SK-MEL-2 = system: SK-MEL-2
UO-31 = system: UO-31
SK-OV-3 = system: SK-OV-3
SF-539 = system: SF-539
EKVX = system: EKVX
UACC-257 = system: UACC-257
MOLT-4 = system: MOLT-4
HOP-92 = system: HOP-92
NCI-H226 = system: NCI-H226
786-0 = system: 786-0
HL-60 = system: HL-60

| SMILES | GI50 (UACC-62) | GI50 (MCF7) | GI50 (PC-3) | GI50 (A498) | GI50 (NCI-H23) | GI50 (SK-MEL-5) | GI50 (LOX IMVI) | GI50 (IGROV-1) | GI50 (SK-MEL-2) | GI50 (UO-31) | GI50 (SK-OV-3) | GI50 (SF-539) | GI50 (EKVX) | GI50 (UACC-257) | GI50 (MOLT-4) | GI50 (HOP-92) | GI50 (NCI-H226) | GI50 (786-0) | GI50 (HL-60) |
| --- | --- | --- | --- | --- | --- | --- | --- | --- | --- | --- | --- | --- | --- | --- | --- | --- | --- | --- | --- |
| c1ccc(C(NC2CCCCC2NCCNC2CCCCC2NC(c2ccccc2)(c2ccccc2)c2ccccc2)(c2ccccc2)c2ccccc2)cc1 (configuration not stated) | 26.2 µM (inactive) | 17.7 µM (inactive) | 64 µM (inactive) | 22.6 µM (inactive) | 20.9 µM (inactive) | 39.5 µM (inactive) | 19 µM (inactive) | 26.8 µM (inactive) | 26.1 µM (inactive) | 20.4 µM (inactive) | 17.8 µM (inactive) | 44 µM (inactive) | 87.9 µM (inactive) | > 100 µM (inactive) | 47.8 µM (inactive) | 13.9 µM (inactive) |  |  |  |
| CCN(CC)CCNc1ccc2nnn3c4ccc(OC(C)=O)cc4c(=O)c1c23 | 11.4 µM (inactive) | 2.16 µM (inactive) | 3.62 µM (inactive) | 6.76 µM (inactive) | 3.77 µM (inactive) | 1.88 µM (inactive) | 1.47 µM (inactive) | 0.224 µM (active) | 14.8 µM (inactive) | 1.63 µM (inactive) | 7.35 µM (inactive) | 1.67 µM (inactive) | 5.56 µM (inactive) | 9.84 µM (inactive) | 0.284 µM (active) | 3.9 µM (inactive) | 0.615 µM (active) |  |  |
| Cc1[nH]c2c(C)ccc(C)c2c1CC(=O)O | 43.1 µM (inactive) | 36.6 µM (inactive) | 22 µM (inactive) | 57 µM (inactive) | 51.8 µM (inactive) | 48.9 µM (inactive) | 36.5 µM (inactive) | 17.6 µM (inactive) | 18.2 µM (inactive) | 37 µM (inactive) | > 100 µM (inactive) | 94.2 µM (inactive) | 39 µM (inactive) | 30.5 µM (inactive) | 26.5 µM (inactive) |  | 33.7 µM (inactive) | 43.9 µM (inactive) | 5.43 µM (inactive) |
| CC(/C=C/C=C/C=C/C=C/C=C/C(=O)C1=C(O)C(CCC(=O)O)N(C)C1=O)=C\C(C)C(OC1CC(O)C(O)C(C)O1)C(C)C (configuration not stated) |  | 4.35 µM (inactive) | 3.32 µM (inactive) | 2.84 µM (inactive) | 2.62 µM (inactive) | 1.91 µM (inactive) | 3.44 µM (inactive) | 1.82 µM (inactive) | 1.78 µM (inactive) | 3.3 µM (inactive) |  | 2.56 µM (inactive) | 3.31 µM (inactive) | 2.15 µM (inactive) | 2.82 µM (inactive) | 2.72 µM (inactive) | 3.48 µM (inactive) | 3.15 µM (inactive) | 2.43 µM (inactive) |
| Cc1ccc(CC2(OCCN(C)C)CCC(C(C)(C)C)CC2)cc1 (configuration not stated) | 2.15 µM (inactive) | 2.43 µM (inactive) | 3.04 µM (inactive) | 13 µM (inactive) | 10.7 µM (inactive) | 1.58 µM (inactive) | 1.57 µM (inactive) | 6.5 µM (inactive) | 1.97 µM (inactive) | 3.49 µM (inactive) | 8.17 µM (inactive) | 1.81 µM (inactive) | 6.14 µM (inactive) | 2.65 µM (inactive) | 1.71 µM (inactive) |  | 5.78 µM (inactive) | 1.99 µM (inactive) | 0.767 µM (active) |
| Cn1c(Nc2ccccc2)c(/C=N\c2ccccc2)c(=O)n(C)c1=O | > 100 µM (inactive) | > 100 µM (inactive) | > 100 µM (inactive) | 80 µM (inactive) | 82.6 µM (inactive) |  | 36.4 µM (inactive) | 38.3 µM (inactive) | > 100 µM (inactive) | 54.2 µM (inactive) | 62.1 µM (inactive) | 94 µM (inactive) |  | > 100 µM (inactive) | 61.5 µM (inactive) | 41.7 µM (inactive) |  | 65.3 µM (inactive) | > 100 µM (inactive) |
| CCCCCC/C=C\CCCCCCCCCc1c(O)c(OC)cc(O)c1CN(C)C | 10.6 µM (inactive) | 2.55 µM (inactive) | 2.96 µM (inactive) | 17 µM (inactive) | 8.61 µM (inactive) | 5.41 µM (inactive) | 3.2 µM (inactive) | 3.18 µM (inactive) | 20.7 µM (inactive) | 4.21 µM (inactive) | 14.9 µM (inactive) | 5.3 µM (inactive) | 10.7 µM (inactive) | 11.4 µM (inactive) | 1.69 µM (inactive) |  | 17 µM (inactive) | 1.7 µM (inactive) | 1.6 µM (inactive) |
| FC(F)(F)C1(C(F)(F)F)OC(Cl)(Cl)C(Cl)(Cl)O1 | > 10 µM (inactive) | > 10 µM (inactive) | > 10 µM (inactive) | > 10 µM (inactive) | > 10 µM (inactive) | > 10 µM (inactive) | > 10 µM (inactive) | > 10 µM (inactive) | > 10 µM (inactive) |  | > 10 µM (inactive) | > 10 µM (inactive) | > 10 µM (inactive) | > 10 µM (inactive) |  | > 10 µM (inactive) | > 10 µM (inactive) | > 10 µM (inactive) |  |
| CCOC(=O)C1CSCCSC1 |  | > 100 µM (inactive) | > 100 µM (inactive) | 44.3 µM (inactive) | > 100 µM (inactive) | 43.2 µM (inactive) | > 100 µM (inactive) |  |  | > 100 µM (inactive) | > 100 µM (inactive) |  |  | > 100 µM (inactive) | > 100 µM (inactive) | > 100 µM (inactive) | > 100 µM (inactive) |  |  |
| Cc1cc(C)c2c(c1)C(=O)C1(C2)Cc2c(ccc(C)c2C)C1=O (configuration not stated) | > 100 µM (inactive) | > 100 µM (inactive) | > 100 µM (inactive) | > 100 µM (inactive) |  | > 100 µM (inactive) | > 100 µM (inactive) | > 100 µM (inactive) | > 100 µM (inactive) | > 100 µM (inactive) |  | 85.5 µM (inactive) | > 100 µM (inactive) | > 100 µM (inactive) | > 100 µM (inactive) | > 100 µM (inactive) | > 100 µM (inactive) | > 100 µM (inactive) | > 100 µM (inactive) |
| O=C1/C(=C/c2ccccc2S)N=C(c2ccccc2)N1c1nc2c(Cl)cc(Cl)cc2s1 | 20.4 µM (inactive) | 22.3 µM (inactive) | 23.9 µM (inactive) | 18.3 µM (inactive) |  | 17.7 µM (inactive) | 20.4 µM (inactive) | 20.9 µM (inactive) | 24 µM (inactive) | 21 µM (inactive) | 20.9 µM (inactive) | 17 µM (inactive) | 11.6 µM (inactive) | 28.9 µM (inactive) | 12.6 µM (inactive) | 19.5 µM (inactive) |  | 24.3 µM (inactive) | 16.4 µM (inactive) |
| CC1=CCC2CC1NC(=O)CCOCCC(=O)NC2(C)C (configuration not stated) | > 100 µM (inactive) | > 100 µM (inactive) | > 100 µM (inactive) | > 100 µM (inactive) | > 100 µM (inactive) | > 100 µM (inactive) | > 100 µM (inactive) |  | > 100 µM (inactive) | > 100 µM (inactive) | > 100 µM (inactive) | > 100 µM (inactive) |  | > 100 µM (inactive) | > 100 µM (inactive) | > 100 µM (inactive) | > 100 µM (inactive) | > 100 µM (inactive) |  |
| CCSc1cc(C(=O)OC)c2n(c1=O)CCCC2 | > 100 µM (inactive) | > 100 µM (inactive) | > 100 µM (inactive) | > 100 µM (inactive) | > 100 µM (inactive) | > 100 µM (inactive) | > 100 µM (inactive) | > 100 µM (inactive) | > 100 µM (inactive) | > 100 µM (inactive) | > 100 µM (inactive) | > 100 µM (inactive) | > 100 µM (inactive) | > 100 µM (inactive) | > 100 µM (inactive) |  | > 100 µM (inactive) | > 100 µM (inactive) | > 100 µM (inactive) |
| CSc1ccc(/C=C2\N=C(c3ccccc3)N(/N=C3\C(=O)Nc4ccccc43)C2=O)cc1 | > 100 µM (inactive) | > 100 µM (inactive) | > 100 µM (inactive) | > 100 µM (inactive) | > 100 µM (inactive) | > 100 µM (inactive) | > 100 µM (inactive) | > 100 µM (inactive) | > 100 µM (inactive) | > 100 µM (inactive) | > 100 µM (inactive) | > 100 µM (inactive) | 38.7 µM (inactive) | > 100 µM (inactive) | 29.7 µM (inactive) | > 100 µM (inactive) |  | > 100 µM (inactive) | > 100 µM (inactive) |
| CCOC(=O)C1=CNC(C(=O)OCC)C1c1cccn1-c1ccccc1 (configuration not stated) | 24.4 µM (inactive) | 31.9 µM (inactive) | 18.8 µM (inactive) | 37 µM (inactive) | 37.7 µM (inactive) | 17.5 µM (inactive) | 16.6 µM (inactive) | 33 µM (inactive) | 12.1 µM (inactive) | 20.7 µM (inactive) |  | 20.4 µM (inactive) | 35.8 µM (inactive) | 35.7 µM (inactive) | 19.8 µM (inactive) | 16.3 µM (inactive) | 23.3 µM (inactive) | 32.5 µM (inactive) |  |
| Nc1nc(Cl)c(/C=N\O)c(NCC2(CO)CCC2)n1 |  | 25.2 µM (inactive) | 43 µM (inactive) | 19.1 µM (inactive) | 1.73 µM (inactive) | 28.8 µM (inactive) | 9.95 µM (inactive) | > 10 µM (inactive) |  | 19.9 µM (inactive) |  | 33.8 µM (inactive) | 17.3 µM (inactive) | 29.3 µM (inactive) | 13.5 µM (inactive) | 19.6 µM (inactive) | 23.2 µM (inactive) | 41.7 µM (inactive) | > 10 µM (inactive) |
